PMC12655637, “Design, Synthesis, and Mechanistic Study of Novel Ciprofloxacin/Thiazole Chalcone Hybrids as Potential Anticancer Agents” (Pharmaceuticals, 2025)
pIC50: −log10 of the molar value.

Columns and labels:
Experiment in all cases: NCI-60 screening, one-dose (10 µM) and five-dose, SRB
[1] = test system: LOX IMVI; format: cell-based, human; details: five-dose
[2] = test system: MDA-MB-435; format: cell-based
[3] = test system: SK-MEL-2; format: cell-based, human
[4] = test system: SK-MEL-28; format: cell-based, human
[5] = test system: SK-MEL-5; format: cell-based, human
[6] = test system: OVCAR-3; format: cell-based
[7] = test system: OVCAR-4; format: cell-based, human
[8] = test system: OVCAR-5; format: cell-based, human; details: five-dose, OVCAR-5
[9] = test system: A498; format: cell-based; details: five-dose, A498
[10] = test system: ACHN; format: cell-based, human
[11] = test system: CAKI-1; format: cell-based
[12] = test system: TK-10; format: cell-based, human
[13] = test system: DU-145; format: cell-based, human
[14] = test system: MDA-MB231/ATCC; format: cell-based
[15] = test system: HS 578T; format: cell-based, human
[16] = test system: BT-549; format: cell-based
[17] = Homo sapiens, read-out: LC50 (the source's name)
[18] = Homo sapiens, five-dose, SK-MEL-2
[19] = Homo sapiens, five-dose, SK-MEL-28
[20] = Homo sapiens, five-dose, SK-MEL-5
[21] = Homo sapiens, five-dose, OVCAR-3
[22] = Homo sapiens, five-dose, OVCAR-4
[23] = Homo sapiens, five-dose, read-out: LC50 (the source's name)
[24] = Homo sapiens, five-dose, CAKI-1
[25] = Homo sapiens, five-dose, DU-145
[26] = Homo sapiens, five-dose, BT-549

Work on `Cc1nc(SCC(=O)N2CCN(c3cc4c(cc3F)c(=O)c(C(=O)O)cn4C3CC3)CC2)sc1C(=O)/C=C/c1cccc(F)c1` [Compound 4d, (E)-1-Cyclopropyl-6-fluoro-7-(4-(2-((5-(3-(3-fluorophenyl)acryloyl)-4-methylthiazol-2-yl)thio)acetyl)piperazin-1-yl)-4-oxo-1,4-dihydroquinoline-3-carboxylic Acid] yielded a pIC50 ([1]; Homo sapiens) of 5.39, a CC50 [1, 17] of over 100 µM and a TGI [1] of 100.0 µM. For the same compound, the GI50 ([2]; Homo sapiens, MDA-MB-435) was 3.7 µM, the pIC50 ([2]; Homo sapiens, MDA-MB-435) was 5.16 and the activity at 10 µM ([2]; Homo sapiens, MDA-MB-435, read-out: Growth percentage, 10 μM, MDA-MB-435, Melanoma) was -3.7%. For the same compound, the CC50 ([2]; Homo sapiens, five-dose, MDA-MB-435, read-out: LC50 (the source's name)) was over 100 µM, the TGI ([2]; five-dose, MDA-MB-435) was 100.0 µM and the activity at 10 µM ([3]; Homo sapiens, 10 μM, SK-MEL-2, Melanoma, read-out: Growth percentage) was -15.4%. The GI50 [3, 18] was over 100 µM, the pIC50 [3, 18] was under 4.00 and the CC50 ([3]; Homo sapiens, five-dose, SK-MEL-2, read-out: LC50 (the source's name)) was over 100 µM. For the same compound, the TGI ([3]; five-dose, SK-MEL-2) was 100.0 µM, the activity at 10 µM ([4]; Homo sapiens, 10 μM, SK-MEL-28, Melanoma, read-out: Growth percentage) was 77.5% and the GI50 [4, 19] was over 100 µM. For the same compound, the pIC50 [4, 19] was under 4.00, the CC50 ([4]; Homo sapiens, five-dose, SK-MEL-28, read-out: LC50 (the source's name)) was over 100 µM and the TGI ([4]; five-dose, SK-MEL-28) was 100.0 µM. The activity at 10 µM ([5]; Homo sapiens, 10 μM, SK-MEL-5, Melanoma, read-out: Growth percentage) was 45.1%, the GI50 [5, 20] was 42.7 µM and the pIC50 [5, 20] was under 4.00. The CC50 ([5]; Homo sapiens, five-dose, SK-MEL-5, read-out: LC50 (the source's name)) was over 100 µM, the TGI ([5]; five-dose, SK-MEL-5) was 100.0 µM and the activity at 10 µM ([6]; Homo sapiens, 10 μM, OVCAR-3, Ovarian Cancer, read-out: Growth percentage) was -10.9%. The GI50 [6, 21] was 13.5 µM, the pIC50 [6, 21] was under 4.00 and the CC50 ([6]; Homo sapiens, five-dose, OVCAR-3, read-out: LC50 (the source's name)) was over 100 µM. It also gave a TGI ([6]; five-dose, OVCAR-3) of 100.0 µM, an activity at 10 µM ([7]; Homo sapiens, 10 μM, OVCAR-4, Ovarian Cancer, read-out: Growth percentage) of 94.5% and a GI50 [7, 22] of over 100 µM. It also gave a pIC50 [7, 22] of under 4.00, a CC50 ([7]; Homo sapiens, five-dose, OVCAR-4, read-out: LC50 (the source's name)) of over 100 µM and a TGI ([7]; five-dose, OVCAR-4) of 100.0 µM. For the same compound, the GI50 ([8]; Homo sapiens) was over 100 µM, the pIC50 ([8]; Homo sapiens) was under 4.00 and the CC50 [8, 17] was over 100 µM. It also gave a TGI [8] of 100.0 µM, a GI50 ([9]; Homo sapiens) of over 100 µM and a pIC50 ([9]; Homo sapiens) of under 4.00. The CC50 [9, 17] was over 100 µM, the TGI [9] was 100.0 µM and the activity at 10 µM ([10]; Homo sapiens, 10 μM, Renal Cancer, read-out: Growth percentage) was 94.4%. It also gave a GI50 ([10]; Homo sapiens, five-dose) of over 100 µM, a pIC50 ([10]; Homo sapiens, five-dose) of under 4.00 and a CC50 [10, 23] of over 100 µM. The TGI ([10]; five-dose) was 100.0 µM, the activity at 10 µM ([11]; Homo sapiens, 10 μM, CAKI-1, Renal Cancer, read-out: Growth percentage) was 79.8% and the GI50 [11, 24] was over 100 µM. For the same compound, the pIC50 [11, 24] was under 4.00, the CC50 ([11]; Homo sapiens, five-dose, CAKI-1, read-out: LC50 (the source's name)) was over 100 µM and the TGI ([11]; five-dose, CAKI-1) was 100.0 µM. For the same compound, the activity at 10 µM ([12]; Homo sapiens, 10 μM, TK-10, Renal Cancer, read-out: Growth percentage) was 97.5%, the GI50 ([12]; Homo sapiens, five-dose, TK-10) was over 100 µM and the pIC50 ([12]; Homo sapiens, five-dose, TK-10) was under 4.00. The CC50 ([12]; Homo sapiens, five-dose, TK-10, read-out: LC50 (the source's name)) was over 100 µM, the TGI ([12]; five-dose, TK-10) was 100.0 µM and the activity at 10 µM ([13]; Homo sapiens, 10 μM, DU-145, Prostate Cancer, read-out: Growth percentage) was 73.7%. The GI50 [13, 25] was over 100 µM, the pIC50 [13, 25] was under 4.00 and the CC50 ([13]; Homo sapiens, five-dose, DU-145, read-out: LC50 (the source's name)) was over 100 µM. For the same compound, the TGI ([13]; five-dose, DU-145) was 100.0 µM, the GI50 ([14]; Homo sapiens, MDA-MB-231) was over 100 µM and the pIC50 ([14]; Homo sapiens, MDA-MB-231) was under 4.00. For the same compound, the CC50 ([14]; Homo sapiens, five-dose, MDA-MB-231/ATCC, read-out: LC50 (the source's name)) was over 100 µM, the TGI ([14]; five-dose, MDA-MB-231/ATCC) was 100.0 µM and the activity at 10 µM ([15]; Homo sapiens, 10 μM, Breast Cancer, read-out: Growth percentage) was 36.2%. The GI50 ([15]; Homo sapiens, five-dose) was over 100 µM, the pIC50 ([15]; Homo sapiens, five-dose) was under 4.00 and the CC50 [15, 23] was over 100 µM. For the same compound, the TGI ([15]; five-dose) was 28.2 µM, the activity at 10 µM ([16]; Homo sapiens, 10 μM, BT-549, Breast Cancer, read-out: Growth percentage) was -88.5% and the GI50 [16, 26] was 5.4 µM. It also gave a pIC50 [16, 26] of 4.59, a CC50 ([16]; Homo sapiens, five-dose, BT-549, read-out: LC50 (the source's name)) of over 100 µM and a TGI ([16]; five-dose, BT-549) of 100.0 µM.
